Assay results: ChEMBL document CHEMBL1201862, “PubChem BioAssay data set” (2004)
“And” between values parts separate entries of the source, which are not always exact repeats. Equal entries are not always repeated. The source made the active and inactive calls.

Assays:
Cytochrome P450 2D6 = Cytochrome P450 2D6 (Homo sapiens, UniProt P10635);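 note: CYP2D6 member of a cytochrome P450 panel assay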
Cytochrome P450 2C9 = Cytochrome P450 2C9 (Homo sapiens, UniProt P11712)
Cytochrome P450 1A2 = target: T1, Cytochrome P450 1A2 (Homo sapiens, UniProt P05177);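 note: PubChem cytochrome P450 panel assay, CYP1A2 panel member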
T1 sequence (P05177 whole entry): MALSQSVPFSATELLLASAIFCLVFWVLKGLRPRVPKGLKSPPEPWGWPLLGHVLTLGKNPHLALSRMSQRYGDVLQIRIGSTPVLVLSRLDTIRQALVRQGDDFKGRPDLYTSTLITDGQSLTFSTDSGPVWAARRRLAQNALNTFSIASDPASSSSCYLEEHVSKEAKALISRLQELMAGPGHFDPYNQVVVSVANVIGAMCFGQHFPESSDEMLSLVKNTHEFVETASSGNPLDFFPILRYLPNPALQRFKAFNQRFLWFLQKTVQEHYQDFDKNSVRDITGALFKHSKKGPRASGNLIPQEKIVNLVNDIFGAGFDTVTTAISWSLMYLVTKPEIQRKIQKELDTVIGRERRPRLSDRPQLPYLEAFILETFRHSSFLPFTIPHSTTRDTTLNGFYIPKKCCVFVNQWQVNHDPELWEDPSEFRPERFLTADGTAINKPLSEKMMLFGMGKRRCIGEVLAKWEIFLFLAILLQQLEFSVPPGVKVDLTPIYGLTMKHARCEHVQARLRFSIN

[1] = target: T2, Replicative DNA helicase DnaB (Mycobacterium tuberculosis, UniProt P9WMR3); test: DnaB intein splicing inhibitors, dose response, biochemical, cell-free fluorescence (AID 449749); assay type: functional
T2 sequence (P9WMR3 whole entry): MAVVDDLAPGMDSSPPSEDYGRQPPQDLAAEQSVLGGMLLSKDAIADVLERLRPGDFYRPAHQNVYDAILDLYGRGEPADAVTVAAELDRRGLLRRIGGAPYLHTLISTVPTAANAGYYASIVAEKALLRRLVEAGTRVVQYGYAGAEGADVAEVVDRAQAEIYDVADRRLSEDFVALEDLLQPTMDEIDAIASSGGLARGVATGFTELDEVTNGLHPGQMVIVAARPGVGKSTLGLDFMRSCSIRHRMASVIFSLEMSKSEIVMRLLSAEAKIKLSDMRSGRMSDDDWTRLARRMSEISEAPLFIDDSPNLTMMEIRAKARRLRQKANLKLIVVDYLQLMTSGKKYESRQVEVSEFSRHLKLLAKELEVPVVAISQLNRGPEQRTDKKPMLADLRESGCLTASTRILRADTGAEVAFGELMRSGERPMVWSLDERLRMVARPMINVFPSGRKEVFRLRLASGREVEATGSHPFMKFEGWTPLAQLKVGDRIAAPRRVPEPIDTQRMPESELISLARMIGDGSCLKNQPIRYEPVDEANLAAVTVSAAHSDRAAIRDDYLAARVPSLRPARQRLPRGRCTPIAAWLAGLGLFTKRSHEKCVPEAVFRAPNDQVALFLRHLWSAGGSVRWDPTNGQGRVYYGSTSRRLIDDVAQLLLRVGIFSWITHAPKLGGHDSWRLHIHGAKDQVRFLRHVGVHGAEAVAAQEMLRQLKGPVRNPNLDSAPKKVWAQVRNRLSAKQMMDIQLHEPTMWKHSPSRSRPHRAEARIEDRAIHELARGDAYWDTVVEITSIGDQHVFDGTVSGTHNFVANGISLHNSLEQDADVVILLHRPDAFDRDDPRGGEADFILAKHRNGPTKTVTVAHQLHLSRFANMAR

Protein RecA = target: T3, Protein RecA (Mycobacterium tuberculosis, UniProt P9WHJ3); test: Fluorescence Cell-Free Homogeneous Dose Retest to Identify Inhibitors of RecA-Intein Splicing Activity. [Related pubchem assays (depositor defined):AID2097, AID2223, AID489010, AID492950]; assay type: functional
T3 sequence (P9WHJ3 whole entry): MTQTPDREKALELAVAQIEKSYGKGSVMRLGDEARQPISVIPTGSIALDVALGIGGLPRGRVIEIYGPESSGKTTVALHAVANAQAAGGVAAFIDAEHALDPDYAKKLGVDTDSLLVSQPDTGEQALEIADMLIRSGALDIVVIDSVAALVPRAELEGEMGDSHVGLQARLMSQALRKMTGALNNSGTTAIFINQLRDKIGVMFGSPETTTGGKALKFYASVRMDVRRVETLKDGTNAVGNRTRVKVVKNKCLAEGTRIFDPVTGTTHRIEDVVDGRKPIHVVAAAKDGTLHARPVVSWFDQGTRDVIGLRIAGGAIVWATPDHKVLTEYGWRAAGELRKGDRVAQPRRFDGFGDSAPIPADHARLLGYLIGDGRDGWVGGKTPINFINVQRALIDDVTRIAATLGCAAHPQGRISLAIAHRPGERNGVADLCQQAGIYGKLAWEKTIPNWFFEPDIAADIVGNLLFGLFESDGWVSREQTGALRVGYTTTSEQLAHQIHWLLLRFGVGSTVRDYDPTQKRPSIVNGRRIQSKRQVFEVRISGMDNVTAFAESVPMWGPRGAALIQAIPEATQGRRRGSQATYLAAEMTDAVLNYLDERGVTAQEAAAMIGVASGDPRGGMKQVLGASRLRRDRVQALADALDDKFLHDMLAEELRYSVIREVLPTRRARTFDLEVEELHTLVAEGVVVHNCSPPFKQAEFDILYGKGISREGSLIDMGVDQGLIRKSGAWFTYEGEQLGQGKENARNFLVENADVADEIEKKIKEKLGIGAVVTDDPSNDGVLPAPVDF

Cytochrome P450 2C19 = Cytochrome P450 2C19 (Homo sapiens, UniProt P33261); test: Cytochrome panel assay with activity outcomes. Panel member name: p450-cyp2c19 Compounds with AC50 equal or less than 10 uM are considered active; assay type: functional; conditions: read-out: AC50
Chain of Cytochrome P450 2C19 (P33261 whole entry): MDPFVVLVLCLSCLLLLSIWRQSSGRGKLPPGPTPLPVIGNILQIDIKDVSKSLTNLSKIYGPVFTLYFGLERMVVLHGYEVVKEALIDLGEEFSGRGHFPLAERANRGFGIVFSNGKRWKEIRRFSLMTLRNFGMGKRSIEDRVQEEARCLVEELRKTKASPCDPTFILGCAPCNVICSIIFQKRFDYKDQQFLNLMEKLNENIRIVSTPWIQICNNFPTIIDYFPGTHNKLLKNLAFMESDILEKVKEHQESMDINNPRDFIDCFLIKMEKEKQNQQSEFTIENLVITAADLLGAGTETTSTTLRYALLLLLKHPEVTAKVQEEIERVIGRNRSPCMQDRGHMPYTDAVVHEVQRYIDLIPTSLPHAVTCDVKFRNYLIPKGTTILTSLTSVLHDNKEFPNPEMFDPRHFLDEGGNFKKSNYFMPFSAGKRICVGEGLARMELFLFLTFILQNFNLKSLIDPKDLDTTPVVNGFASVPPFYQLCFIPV

Cytochrome P450 3A4 = Cytochrome P450 3A4 (Homo sapiens, UniProt P08684);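 note: CYP3A4 tested as one member of a cytochrome P450 panel screen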
Chain of Cytochrome P450 3A4 (P08684 whole entry): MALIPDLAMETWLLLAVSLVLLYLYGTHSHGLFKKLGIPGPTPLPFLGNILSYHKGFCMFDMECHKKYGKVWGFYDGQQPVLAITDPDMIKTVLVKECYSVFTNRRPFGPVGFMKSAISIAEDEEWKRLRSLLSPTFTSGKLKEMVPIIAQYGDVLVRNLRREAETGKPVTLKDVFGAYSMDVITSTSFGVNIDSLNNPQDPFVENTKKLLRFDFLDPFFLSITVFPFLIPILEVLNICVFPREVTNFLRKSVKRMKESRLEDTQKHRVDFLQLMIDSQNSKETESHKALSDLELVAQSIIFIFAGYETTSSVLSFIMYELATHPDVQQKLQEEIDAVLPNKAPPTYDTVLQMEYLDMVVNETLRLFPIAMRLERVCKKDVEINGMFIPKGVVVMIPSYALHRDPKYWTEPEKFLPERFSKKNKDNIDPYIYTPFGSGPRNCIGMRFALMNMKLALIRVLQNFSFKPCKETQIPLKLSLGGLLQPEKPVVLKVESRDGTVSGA

[2] = target: T4, Heat shock factor protein 1 (Mus musculus, UniProt P38532); test: decrease of HSF1-responsive luciferase luminescence – cell-based, NIH3T3, dose retest, confirmation (AID 2382); assay type: functional;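 note: NIH3T3 fibroblasts with HSF1-driven luciferase reporter stressed by proteasome inhibitor MG132; luminescence from HSF1-driven luciferase expression after 8 hours of MG132 stress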
T4 sequence (P38532 whole entry): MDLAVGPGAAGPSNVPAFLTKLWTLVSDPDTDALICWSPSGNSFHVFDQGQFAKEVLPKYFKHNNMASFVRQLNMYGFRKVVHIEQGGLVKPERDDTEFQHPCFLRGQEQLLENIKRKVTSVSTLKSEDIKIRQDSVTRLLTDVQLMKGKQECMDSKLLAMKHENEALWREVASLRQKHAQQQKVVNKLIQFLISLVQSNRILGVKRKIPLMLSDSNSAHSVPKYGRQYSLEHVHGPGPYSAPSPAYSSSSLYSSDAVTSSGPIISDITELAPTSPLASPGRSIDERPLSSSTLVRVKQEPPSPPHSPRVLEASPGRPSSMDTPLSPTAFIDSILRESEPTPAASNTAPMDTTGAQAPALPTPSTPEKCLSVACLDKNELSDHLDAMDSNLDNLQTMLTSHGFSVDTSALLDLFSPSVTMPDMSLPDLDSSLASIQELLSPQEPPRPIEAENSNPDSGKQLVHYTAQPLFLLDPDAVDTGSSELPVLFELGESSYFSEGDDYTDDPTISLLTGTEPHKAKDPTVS

[3] = NIH-3T3 fibroblast cytotoxicity, dose response, cytotoxicity control, cell-based, fluorescence, Alamar Blue, secondary assay (AID 2327); assay type: functional;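 note: NIH-3T3 mouse fibroblasts cultured with fluconazole at 8 µg/mL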
INS1 = test: INS-1E survival protection against cytokine death – cell-based, luminescence, retest, dose response (AID 449756); assay type: functional; conditions: Rattus norvegicus;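 note: cell death triggered by IL-1 beta plus TNF-alpha plus IFN-gamma mixture; protective hits raise ATP signal compared with cytokine alone wells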
[4] = test system: Streptococcus sp. 'group A'; test: Streptococcus pyogenes SK(-)GAS viability under kanamycin – luminescence, BacTiterGlo, confirmation, counter-screen for streptokinase expression inhibitor project, dose response (AID 1900); assay type: functional, organism-based
Streptokinase A = target: T5, Streptokinase A (Streptococcus pyogenes serotype M1, UniProt P10520); test: viability-normalized secreted streptokinase activity reduction – plasminogen activation absorbance, OD405, dose response (AID 1914); assay type: functional, Streptococcus pyogenes M1 GAS;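 note: secreted streptokinase activity via plasminogen activation per viability signal from cell pellet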
T5 sequence (P10520 whole entry): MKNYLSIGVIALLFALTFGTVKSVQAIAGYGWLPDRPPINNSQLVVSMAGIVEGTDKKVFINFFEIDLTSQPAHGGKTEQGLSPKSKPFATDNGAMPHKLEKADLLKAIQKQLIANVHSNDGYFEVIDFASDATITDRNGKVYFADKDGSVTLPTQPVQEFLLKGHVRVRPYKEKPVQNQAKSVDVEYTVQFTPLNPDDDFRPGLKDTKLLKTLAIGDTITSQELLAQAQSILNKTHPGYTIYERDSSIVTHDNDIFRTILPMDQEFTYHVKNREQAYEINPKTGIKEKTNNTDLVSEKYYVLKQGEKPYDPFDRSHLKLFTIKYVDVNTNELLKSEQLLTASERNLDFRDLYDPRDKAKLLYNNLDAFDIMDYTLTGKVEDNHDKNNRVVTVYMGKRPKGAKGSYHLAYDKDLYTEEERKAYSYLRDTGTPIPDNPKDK

Streptococcus = test: GAS UMAA2166 growth inhibition – luminescence, BacTiterGlo, counter-screen for streptokinase expression inhibitor project, dose response (AID 1915); assay type: functional, organism-based;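 note: potency for reduction of bacterial viability or growth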
[5] = fluconazole-exposed Candida albicans growth modulators – fluorescence, retest, confirmation (AID 2467); assay type: functional, cell-based

Chain of Cytochrome P450 2C9 (P11712 whole entry): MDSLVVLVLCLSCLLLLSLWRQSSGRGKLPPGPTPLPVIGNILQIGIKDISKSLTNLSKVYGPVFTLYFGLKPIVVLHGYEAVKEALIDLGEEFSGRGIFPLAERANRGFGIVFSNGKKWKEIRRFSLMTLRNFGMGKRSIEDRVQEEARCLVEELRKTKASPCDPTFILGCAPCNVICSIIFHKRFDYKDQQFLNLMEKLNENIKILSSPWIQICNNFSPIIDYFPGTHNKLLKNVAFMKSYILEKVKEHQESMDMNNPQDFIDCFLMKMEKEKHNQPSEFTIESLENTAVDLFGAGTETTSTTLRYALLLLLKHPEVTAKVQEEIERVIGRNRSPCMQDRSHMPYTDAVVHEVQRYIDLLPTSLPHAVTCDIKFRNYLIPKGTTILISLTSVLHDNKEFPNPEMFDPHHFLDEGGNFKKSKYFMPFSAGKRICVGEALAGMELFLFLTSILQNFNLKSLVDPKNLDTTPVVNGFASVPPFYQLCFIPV
Chain of Cytochrome P450 2D6 (P10635 whole entry): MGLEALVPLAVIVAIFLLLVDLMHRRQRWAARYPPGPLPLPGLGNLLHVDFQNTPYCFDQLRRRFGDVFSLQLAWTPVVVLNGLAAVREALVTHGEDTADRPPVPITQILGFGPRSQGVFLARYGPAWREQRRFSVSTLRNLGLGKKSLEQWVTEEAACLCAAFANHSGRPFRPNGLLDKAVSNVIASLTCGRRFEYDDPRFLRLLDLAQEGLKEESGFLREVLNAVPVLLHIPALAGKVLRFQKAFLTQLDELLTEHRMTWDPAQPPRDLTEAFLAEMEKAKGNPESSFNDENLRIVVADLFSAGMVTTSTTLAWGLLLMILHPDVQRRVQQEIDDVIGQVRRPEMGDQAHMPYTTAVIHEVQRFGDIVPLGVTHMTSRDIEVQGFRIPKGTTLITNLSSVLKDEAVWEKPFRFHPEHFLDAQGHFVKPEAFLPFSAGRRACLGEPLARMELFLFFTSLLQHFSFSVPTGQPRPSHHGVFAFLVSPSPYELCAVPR

COCCNC(=O)[C@H](C)[C@H]1C[C@]1(C)[C@H](NC(=O)OCc1ccccc1)c1ccccc1
AC50 (Cytochrome P450 2D6): 20 µM (inconclusive) | AC50 (Cytochrome P450 2C9): 20 µM (inconclusive)

C[C@H](NCCc1ccc(O)cc1)[C@@H](O)c1ccc(O)cc1
AC50 (Cytochrome P450 2D6): 15.8 µM (inconclusive) and 12.6 µM (inconclusive)

C[As+](C)(c1ccc(Br)c([N+](=O)[O-])c1)c1ccc(Br)c([N+](=O)[O-])c1
AC50 (Cytochrome P450 2D6): 1.58 µM (inconclusive)

COc1cccc(CNc2ccc3nc(-c4ccc(N)cc4)c(OC)n3n2)c1
AC50 (Cytochrome P450 2D6): 10 µM (inconclusive)

C/N=C1\N[C@H](c2ccccc2)N(c2ccccc2)S1
AC50 (Cytochrome P450 2D6): 25.1 µM (inconclusive)

COc1ccc(N(CC(=O)Nc2cccc(C)c2)S(=O)(=O)c2c(C)n[nH]c2C)cc1
AC50 (Cytochrome P450 2D6): 20 µM (inconclusive)

COc1ccc(-n2c(=O)c(-c3ccc(Cl)cc3)nc3cnc(N(C)C)nc32)cc1
AC50 (Cytochrome P450 2D6): 2.51 µM (inconclusive) | AC50 (Cytochrome P450 1A2): 10 µM (inconclusive)

CCC(C)[C@H](NC(=O)NC1CCN(Cc2ccccc2)CC1)C(=O)OC (some centres undefined)
AC50 (Cytochrome P450 2D6): 28.2 µM (inconclusive) | AC50 [1]: 39.9 µM (active) | AC50 (Cytochrome P450 2C9): 2.24 µM (inconclusive) | EC50 (Protein RecA): 2.96 µM (active)

c1cnc2ccc(C(c3nnnn3C3CCCC3)N3CCN4CCCC4C3)cc2c1 (centres undefined)
AC50 (Cytochrome P450 2D6): 22.4 µM (inconclusive) | AC50 (Cytochrome P450 2C19): 25.1 µM (inconclusive) | AC50 (Cytochrome P450 2C9): 14.1 µM (inconclusive) | AC50 (Cytochrome P450 3A4): 6.31 µM (inconclusive)

CCS(=O)(=O)N1CCC(C(=O)NCCN2CCN(Cc3ccccc3)CC2)CC1
AC50 (Cytochrome P450 2D6): 14.1 µM (inconclusive)

Cc1ccc(C)c(/C(=N\N=C(N)N)C2CC2)c1
AC50 (Cytochrome P450 2D6): 3.98 µM (inconclusive)

COc1nc(N)c(C#N)c(-c2ccc(N(C)CCC#N)cc2)c1C#N
EC50 [2]: 15.6 µM (active)

Cc1cc(O)nc(CCl)n1
EC50 [2]: > 195 µM (not active)

CS(=O)(=O)Nc1cccc(-c2nc(Nc3ccc(F)cc3)c3ccccc3n2)c1
AC50 (Cytochrome P450 2D6): 39.8 µM (inconclusive)

C#C[C@@]1(O)CC[C@@H]2[C@@H]3CCC4=C(CCC(=O)C4)[C@H]3CC[C@]21C
AC50 (Cytochrome P450 2D6): 15.8 µM (inconclusive) | AC50 (Cytochrome P450 1A2): 12.6 µM (inconclusive)

Cc1cnc(CNc2ncnc3ccc(-c4ccoc4)cc23)cn1
AC50 (Cytochrome P450 2D6): 39.8 µM (inconclusive)

CNc1nc(-c2ccccc2C)nc2ccccc12
AC50 (Cytochrome P450 2D6): 31.6 µM (inconclusive) | AC50 (Cytochrome P450 3A4): 20 µM (inconclusive)

CC(C)c1ccccc1-n1c(SCC(=O)N2CCN(c3ccccc3)CC2)nnc1-c1cccnc1
AC50 (Cytochrome P450 2D6): 15.8 µM (inconclusive)

CCC1=NN(C(=O)c2ccccc2O)C(O)(c2ccccc2)C1 (centres undefined)
EC50 [3]: > 160 µM (inactive) | AC50 (INS1): 3.72 µM (active) | EC50 [4]: 2.58 µM (active) | EC50 (Streptokinase A): > 150 µM (not active) | EC50 (Streptococcus): 26.7 µM (active) | EC50 [5]: 0.788 µM (active)

O=C(CCC(=O)c1cccs1)OCC(=O)N1CCN(C(=O)c2ccco2)CC1
AC50 (Cytochrome P450 2D6): 39.8 µM (inconclusive) | AC50 (Cytochrome P450 2C9): 11.2 µM (inconclusive)

c1ccc(-c2ccc(N3CCCC4(CCNCC4)C3)cc2)cc1
AC50 (Cytochrome P450 2D6): 20 µM (inconclusive)

CCOc1nnc(C)c2c(C)n(-c3ccc(Cl)cc3)nc12
AC50 (Cytochrome P450 2D6): 25.1 µM (inconclusive) | AC50 (Cytochrome P450 2C19): 31.6 µM (inconclusive) | AC50 (Cytochrome P450 2C9): 25.1 µM (inconclusive)

CC(C)Cn1cnc2c(SCc3ccc(Cl)cc3Cl)nc(N)nc21
AC50 (Cytochrome P450 2D6): 7.94 µM (inconclusive) | AC50 (Cytochrome P450 2C9): 7.94 µM (inconclusive) | AC50 (Cytochrome P450 1A2): 1.26 µM (inconclusive)

C=CCn1cc(Cl)c(=O)n(CC=C)c1=O
AC50 (Cytochrome P450 2D6): 0.562 µM (inconclusive) | AC50 (Cytochrome P450 3A4): 25.1 µM (inconclusive) | AC50 (Cytochrome P450 1A2): 14.1 µM (inconclusive)

CCNC(=O)O/N=C(\C)c1sc(-c2ccccc2)nc1C
AC50 (Cytochrome P450 2D6): 20 µM (inconclusive)

Cc1c(/N=C/c2ccco2)n(Cc2ccccc2)c2ccccc12
AC50 (Cytochrome P450 2D6): 4.47 µM (inconclusive) | AC50 (Cytochrome P450 2C19): 2.82 µM (inconclusive)

CC(C)=CCc1c2c(c(O)c3c(=O)c4c(oc13)-c1cc(O)c(O)cc1OC4C=C(C)C)C=CC(C)(C)O2 (centres undefined) [CYCLOHETERPHYLLIN]
EC50 [3]: 16.5 µM (inconclusive) | EC50 [4]: 2.95 µM (active) | EC50 (Streptokinase A): > 150 µM (not active) | EC50 (Streptococcus): 4.01 µM (active) | EC50 [5]: > 38 µM (not active)
